# Test results as given in patent publication US11464783B2, “Heterocyclic compounds” (Aligos Therapeutics, Inc., priority 2019, dated 2022).
# System: HBV
# Assay: HBV-DNA Antiviral Assay Using HepG2.117 Cells
# Format: cell-based
# Settings: Hepatitis B virus, HepG2.117, 96 h, intracellular HBV DNA by qPCR, day 4
# Description: The following assay procedure describes the HBV antiviral assay, using HepG2.117 cells, which carry a stably integrated genotype D HBV genome under the control of a Tet-off promoter, and intracellular HBV DNA quantification as endpoint. Cell viability is assessed in parallel by measuring the intracellular ATP content using ATPlite (Perkin Elmer).
# On day 0, HepG2.117 cells (which are maintained in routine cell culture with doxycycline present in the medium at a final concentration of 1 μg/mL) were seeded in 96-well plates (white with clear bottom) at a density of 2.0×10^4 cells/well (0.1 mL/well) in medium without doxycycline to induce pgRNA transcription and subsequent formation of HBV particles. The cells were incubated at 37° C. and 5% CO2.
# On day 1, medium was removed from each well, the test articles were diluted in culture medium without doxcycyline and 100 μL was added to cell culture wells (9 concentrations, 4-fold dilution). For each plate, 6 untreated (merely DMSO) wells were included. The final concentration of DMSO in the culture medium was 2%. Each plate was prepared in duplicate (one for HBV DNA extraction, one for ATPlite measurement). The cells were incubated at 37° C. and 5% CO2 for 3 days.
# On day 4, cell viability was assessed using ATPlite and cell lysates were prepared for HBV DNA extraction and subsequent quantification by qPCR.
# Medium was removed from each well and 100 μL of 0.33% NP-40 in H2O was added to each well. Plates were sealed, incubated at 4° C. for 5 mins, vortexed extensively and centrifuged briefly. Next, 35 μL of lysate was added to 65 μL QuickExtract DNA Extraction Solution (Epicentre) in a PCR plate for each well. PCR plate was incubated at 65° C. for 6 mins, 98° C. for 2 mins and finally cooled to 4° C. HBV DNA was then quantified by qPCR with HBV-specific primers and probes as specified in Table 2 using the Bio-Rad SSOAdvanced Universal Probes Supermix on a CFX96 machine (Bio-Rad). The PCR cycle program consisted of 95° C. for 3 mins, followed by 40 cycles at 95° C. for 10 sec and 60° C. for 30 sec.
# A DNA standard was prepared by dilution of an IDT gBlock corresponding to the amplicon with concentrations ranging from 10^2 to 10^8 copies/input (i.e. per 4 μL) and used to generate a standard curve by plotting Cq values vs. HBV DNA standard concentration. The quantity of HBV DNA in each sample was determined by interpolating from the standard curve.
# Cell viability was calculated as follows: % Cell viability=(luminescence value of test sample)/(average luminescence value of 2% DMSO control)×100%. HBV DNA inhibition was calculated as follows: 100−(HBV DNA copy number of test sample)/(average HBV DNA copy number of 2% DMSO control)×100%. No normalization to entecavir was required due to the excellent dynamic window of this assay. The CC50, EC so and EC90 values were determined by dose-response curves fitted by GraphPad Prism using “log (agonist) vs. response—Variable slope”.
row,SMILES,EC50 [nM]
1,"CC(C)NC(=O)C1CN(C(=O)c2ccc(Br)c(Cl)c2)CCS1(=O)=O (centres unmarked) [Compound 1, 4-(4-bromo-3-chlorobenzoyl)-N-isopropylthiomorpholine-2-carboxamide 1,1-dioxide]",500 to 5000
2,"O=C(Nc1ccccc1)C1CN(C(=O)c2ccc(Br)c(Cl)c2)CCS1(=O)=O (centres unmarked) [Compound 2, 4-(4-bromo-3-chlorobenzoyl)-N-phenylthiomorpholine-2-carboxamide 1,1-dioxide]",500 to 5000
3,"O=C(NCc1ccccc1)C1CN(C(=O)c2ccc(Br)c(Cl)c2)CCS1(=O)=O (centres unmarked) [Compound 3, N-benzyl-4-(4-bromo-3-chlorobenzoyl)thiomorpholine-2-carboxamide 1,1-dioxide]",100 to 500
4,"O=C(NCCc1ccccc1)C1CN(C(=O)c2ccc(Br)c(Cl)c2)CCS1(=O)=O (centres unmarked) [Compound 4, 4-(4-bromo-3-chlorobenzoyl)-N-phenethylthiomorpholine-2-carboxamide 1,1-dioxide]",500 to 5000
5,"O=C(c1ccc(Cl)cc1F)N1CCS(=O)(=O)C(c2cccs2)C1 (centres unmarked) [Compound 10b, (4-chloro-2-fluoro-phenyl)-[1,1-dioxo-2-(2-thienyl)-1,4-thiazinan-4-yl]methanone]",500 to 5000
6,"O=C(c1cc(F)cc(Cl)c1)N1CCS(=O)(=O)C(c2cccs2)C1 (centres unmarked) [Compound 13a, (3-chloro-5-fluoro-phenyl)-[1,1-dioxo-2-(2-thienyl)-1,4-thiazinan-4-yl]methanone]",500 to 5000
7,"Cn1cnc(-c2ccc(C3CN(C(=O)Nc4ccc(F)c(Cl)c4)CCS3(=O)=O)s2)c1 (centres unmarked) [Compound 15a, N-(3-chloro-4-fluoro-phenyl)-2-[5-(1-methylimidazol-4-yl)-2-thienyl]-1,1-dioxo-1,4-thiazinane-4-carboxamide]",500 to 5000
8,"N=S1(=O)CCN(C(=O)Nc2ccc(F)c(Cl)c2)CC1c1cccs1 (centres unmarked) [Compound 17, N-(3-chloro-4-fluoro-phenyl)-1-imino-1-oxo-2-(2-thienyl)-1,4-thiazinane-4-carboxamide]",500 to 5000
9,"C[C@H]1CS(=O)(=O)[C@H](c2cccs2)CN1C(=O)Nc1ccc(F)c(Cl)c1 [Compound 20, (2S,5S)—N-(3-chloro-4-fluoro-phenyl)-5-methyl-1,1-dioxo-2-(2-thienyl)-1,4-thiazinane-4-carboxamide]",500 to 5000
10,"C[C@H]1CS(=O)(=O)[C@@H](c2cccs2)CN1C(=O)Nc1ccc(F)c(Cl)c1 [Compound 21, (2R,5S)—N-(3-chloro-4-fluoro-phenyl)-5-methyl-1,1-dioxo-2-(2-thienyl)-1,4-thiazinane-4-carboxamide]",100 to 500
11,"C[C@@H]1CS(=O)(=O)[C@H](c2cccs2)CN1C(=O)Nc1ccc(F)c(Cl)c1 [Compound 23, (2S,5R)-N-(3-chloro-4-fluorophenyl)-5-methyl-1,1-dioxo-2-(thiophen-2-yl)-1,4-thiomorpholine-4-carboxamide]",500 to 5000
12,"C[C@@H]1CS(=O)(=O)[C@@H](c2cccs2)CN1C(=O)c1ccc(Br)c(Cl)c1 [Compound 25, (4-bromo-3-chloro-phenyl)-[(2R,5R)-5-methyl-1,1-dioxo-2-(2-thienyl)-1,4-thiazinan-4-yl]methanone]",500 to 5000
13,"C[C@@H]1CS(=O)(=O)[C@H](c2cccs2)CN1C(=O)c1ccc(Br)c(Cl)c1 [Compound 26, (4-bromo-3-chloro-phenyl)-[(2S,5R)-5-methyl-1,1-dioxo-2-(2-thienyl)-1,4-thiazinan-4-yl]methanone]",500 to 5000
14,"O=C(c1ccc(Br)c(Cl)c1)N1CCS(=O)(=O)C(c2nccs2)C1 (centres unmarked) [Compound 27, (4-bromo-3-chloro-phenyl)-(1,1-dioxo-2-thiazol-2-yl-1,4-thiazinan-4-yl)methanone]",100 to 500
15,"O=C(c1ccc(Br)c(Cl)c1)N1CCS(=O)(=O)C(c2nnco2)C1 (centres unmarked) [Compound 28, (4-bromo-3-chloro-phenyl)-[2-(1,3,4-oxadiazol-2-yl)-1,1-dioxo-1,4-thiazinan-4-yl]methanone]",500 to 5000
16,"Cc1cnc(C2CN(C(=O)c3ccc(Br)c(Cl)c3)CCS2(=O)=O)s1 (centres unmarked) [Compound 29, (4-bromo-3-chloro-phenyl)-[2-(5-methylthiazol-2-yl)-1,1-dioxo-1,4-thiazinan-4-yl]methanone]",≤ 100
17,"O=C(c1ccc(Br)c(Cl)c1)N1CCS(=O)(=O)C(c2ncc(Cc3ccccc3)s2)C1 (centres unmarked) [Compound 30, (2-(5-benzylthiazol-2-yl)-1,1-dioxidothiomorpholino)(4-bromo-3-chlorophenyl)methanone]",100 to 500
18,"O=C(c1ccc(Br)c(Cl)c1)N1CCS(=O)(=O)C(c2nc(Cc3ccccc3)cs2)C1 (centres unmarked) [Compound 31, (2-(4-benzylthiazol-2-yl)-1,1-dioxidothiomorpholino)(4-bromo-3-chlorophenyl)methanone]",100 to 500
19,O=C(c1ccc(Cl)c(Cl)c1)N1CCS(=O)(=O)C(c2nccs2)C1 (centres unmarked) [Compound 32],500 to 5000
20,C[C@@]1(C(=O)NCc2ccccc2)CN(C(=O)c2ccc(Br)c(Cl)c2)CCS1(=O)=O [Compound 33a],100 to 500
21,C[C@]1(C(=O)NCc2ccccc2)CN(C(=O)c2ccc(Br)c(Cl)c2)CCS1(=O)=O [Compound 33b],500 to 5000
22,CC1(c2nccs2)CN(C(=O)c2ccc(Br)c(Cl)c2)CCS1(=O)=O (centres unmarked) [Compound 34],500 to 5000
23,O=C(c1ccc(Br)c(Cl)c1)N1CCS(=O)(=O)[C@](F)(C(=O)NCc2ccccc2)C1 [Compound 35a],≤ 100
24,O=C(c1ccc(Br)c(Cl)c1)N1CCS(=O)(=O)[C@@](F)(C(=O)NCc2ccccc2)C1 [Compound 35b],500 to 5000

# Same assay, conditions: intracellular HBV DNA by qPCR, day 4
row,SMILES,EC50 [nM]
1,"O=C(Nc1ccc(F)c(Cl)c1)N1CCS(=O)(=O)C(c2ccccc2)C1 (single isomer, unassigned) [Compound 18a, N-(3-chloro-4-fluoro-phenyl)-1, l-dioxo-2-phenyl-1,4-thiazinane-4-carboxamide]",500 to 5000
2,"O=C(Nc1ccc(F)c(Cl)c1)N1CCS(=O)(=O)C(c2ccccc2)C1 (single isomer, unassigned) [Compound 18b, N-(3-chloro-4-fluoro-phenyl)-1, l-dioxo-2-phenyl-1,4-thiazinane-4-carboxamide]",> 5000
3,"O=C(c1ccc(Br)c(Cl)c1)N1CCS(=O)(=O)C(c2ccccc2)C1 (single isomer, unassigned) [Compound 19a, (4-bromo-3-chloro-phenyl)-(1,1-dioxo-2-phenyl-1,4-thiazinan-4-yl)methanone]",100 to 500
4,"O=C(c1ccc(Br)c(Cl)c1)N1CCS(=O)(=O)C(c2ccccc2)C1 (single isomer, unassigned) [Compound 19b, (4-bromo-3-chloro-phenyl)-(1,1-dioxo-2-phenyl-1,4-thiazinan-4-yl)methanone]",500 to 5000
5,"C[C@@H]1CS(=O)(=O)[C@](F)(c2ncc(Cc3ccccc3)s2)CN1C(=O)c1ccc(Br)c(Cl)c1 (stereo in doubt) [Compound 47a, (4-bromo-3-chloro-phenyl)-[(rac-2S,5R)-2-(5-benzylthiazol-2-yl)-2-fluoro-5-methyl-1,1-dioxo-1,4-thiazinan-4-yl]methanone]",> 5000
6,"C[C@@H]1CS(=O)(=O)[C@@](F)(c2ncc(Cc3ccccc3)s2)CN1C(=O)c1ccc(Br)c(Cl)c1 (stereo in doubt) [Compound 47b, (4-bromo-3-chloro-phenyl)-[(rac-2R,5R)-2-(5-benzylthiazol-2-yl)-2-fluoro-5-methyl-1,1-dioxo-1,4-thiazinan-4-yl]methanone]",≤ 100
7,"C[C@H]1CS(=O)(=O)[C@](F)(c2ncc(Cc3ccccc3)s2)CN1C(=O)c1ccc(Br)c(Cl)c1 (stereo in doubt) [Compound 48a, (4-bromo-3-chloro-phenyl)-[(rac-2S,5S)-2-(5-benzylthiazol-2-yl)-2-fluoro-5-methyl-1,1-dioxo-1,4-thiazinan-4-yl]methanone]",100 to 500
8,"C[C@H]1CS(=O)(=O)[C@@](F)(c2ncc(Cc3ccccc3)s2)CN1C(=O)c1ccc(Br)c(Cl)c1 (stereo in doubt) [Compound 48b, (4-bromo-3-chloro-phenyl)-[(rac-2R,5S)-2-(5-benzylthiazol-2-yl)-2-fluoro-5-methyl-1,1-dioxo-1,4-thiazinan-4-yl]methanone]",100 to 500
